Experimental data as given in article PMC8880098, “Synthesis, Antibacterial Evaluation, and Computational Studies of a Diverse Set of Linezolid Conjugates” (Pharmaceuticals, 2022).
≈ marks a conversion by molar mass, not a printed value. Read-outs that look alike come from different tables or passages of the source.

Assays:
[1] = tested on: Pseudomonas aeruginosa ATCC 15692; experiment: Antibacterial MIC, microdilution susceptibility test (CLSI); format: cell-based
Text: (§1) The synthesized linezolid conjugates (3a–k, 5a–f, 7a–c, 9a–c, 11a–f, 13, and 15) were subjected for antimicrobial properties determination against Gram-positive (Staphylococcus aureus ATCC 6538, Bacillus subtilis ATCC 6633) and Gram-negative (Pseudomonas aeruginosa ATCC 15692, Escherichia coli ATCC 47076) bacteria by the standard technique.
(§2) Antibacterial properties of the synthesized compounds (3a–k, 5a–f, 7a–c, 9a–c, 11a–f, 13 and 15) were screened against Gram-positive (Staphylococcus aureus ATCC 6538, Bacillus subtilis ATCC 6633) and Gram-negative (Pseudomonas aeruginosa ATCC 15,692 and Escherichia coli ATCC 47076) bacteria utilizing the standard technique. Linezolid was used as a standard reference/drug in the current study. The tested bacterial strains were obtained from MERCIN Center, Faculty of Agriculture, Ain Shams University, Cairo, Egypt.
(§3) To determine the antibacterial activity, stock solutions of the tested compounds and standard reference were prepared with up to 100% DMSO and stored at […]. If necessary, the solutions were heated to 40–60 °C before testing to facilitate complete dissolution. Double distilled water was used in all dilutions prepared. […] A microdilution susceptibility test was used for MIC determination (Mueller–Hinton broth in 96-well plates) according to the CLSI (the Clinical and Laboratory Standards Institute, Malvern, PA, USA). The bacterial inoculum was adjusted to approximately 2.5–3 × 10^4 cells/mL in Mueller–Hinton broth and incubated in a ratio of 1:1 with the test derivatives in polystyrene 96-well flat-bottom microplates. Positive growth control (without test derivatives) and negative control (without bacteria) were included. The microplates were placed in an incubator set to 37 °C for 24 h. Absorbance was measured at 620 nm at the end of the incubation period. The cut-off level for follow-up studies was defined as a minimum of 90% inhibition of growth compared to the untreated sample. Experiments were conducted once in triplicate. For selected compounds, minimum inhibitory concentration (MIC) values were determined by dose–response experiments. Experiments were performed at least twice, in triplicate per concentration tested.

[2] = tested on: Escherichia coli ATCC 47076; experiment: as above; format: cell-based
Text: as §1, §2, §3

[3] = tested on: Staphylococcus aureus ATCC 6538; experiment: as above; format: cell-based
Text: as §1, §2, §3

[4] = tested on: Bacillus subtilis ATCC 6633; experiment: as above; format: cell-based
Text: as §1, §2, §3

[5] = tested on: Staphylococcus aureus ATCC 6538; experiment: microbe, parasite or virus in culture; design: species or system bacteria; Broth microdilution MIC in Mueller-Hinton broth, absorbance at 620 nm; conditions: ATCC6538, 24 h, read-out: Observed MIC, uM (S. aureus)
Text: as §3, with “Antibacterial properties of the synthesized compounds (3a–k, 5a–f, 7a–c, 9a–c, 11a–f, 13 and 15) were screened against Gram-positive (Staphylococcus aureus ATCC 6538, Bacillus subtilis ATCC 6633) and Gram-negative (Pseudomonas aeruginosa ATCC 15,692 and Escherichia coli ATCC 47076) bacteria utilizing the standard technique. Linezolid was used as a standard reference/drug in the current study. The tested bacterial strains were obtained from MERCIN Center, Faculty of Agriculture, Ain Shams University, Cairo, Egypt. To” for “To”

[6] = tested on: Bacillus subtilis ATCC 6633; experiment: microbe, parasite or virus in culture; design: species or system bacteria; Broth microdilution MIC in Mueller-Hinton broth, absorbance at 620 nm; conditions: ATCC6633, 24 h, read-out: Observed MIC, uM (B. subtilis)
Text: as §3, with “Antibacterial properties of the synthesized compounds (3a–k, 5a–f, 7a–c, 9a–c, 11a–f, 13 and 15) were screened against Gram-positive (Staphylococcus aureus ATCC 6538, Bacillus subtilis ATCC 6633) and Gram-negative (Pseudomonas aeruginosa ATCC 15,692 and Escherichia coli ATCC 47076) bacteria utilizing the standard technique. Linezolid was used as a standard reference/drug in the current study. The tested bacterial strains were obtained from MERCIN Center, Faculty of Agriculture, Ain Shams University, Cairo, Egypt. To” for “To”

[7] = ATCC15692, Mueller–Hinton broth, 37 °C, 24 h, read-out: MIC, μg/mL ± SE, P. Aeruginosa (ATCC 15692)
[8] = ATCC15692, value in parentheses, read-out: MIC (μmol), P. Aeruginosa (ATCC 15692) (converted)
[9] = ATCC47076, Mueller–Hinton broth, 37 °C, 24 h, read-out: MIC, μg/mL ± SE, E. Coli (ATCC 47076)
[10] = ATCC47076, value in parentheses, read-out: MIC (μmol), E. Coli (ATCC 47076) (converted)
[11] = Staphylococcus aureus, ATCC6538, 24 h, Mueller–Hinton broth, 37 °C, 24 h, read-out: MIC, μg/mL ± SE, S. Aureus (ATCC 6538)
[12] = Bacillus subtilis, ATCC6633, 24 h, Mueller–Hinton broth, 37 °C, 24 h, read-out: MIC, μg/mL ± SE, B. Subtilis (ATCC 6633)
[13] = Staphylococcus aureus, ATCC6538, as quoted in running text, read-out: MIC against S. aureus
[14] = Staphylococcus aureus, ATCC6538, value in parentheses, read-out: MIC (μmol), S. Aureus (ATCC 6538) (converted)
[15] = Bacillus subtilis, ATCC6633, as quoted in running text, read-out: MIC against B. subtilis
[16] = Bacillus subtilis, ATCC6633, value in parentheses, read-out: MIC (μmol), B. Subtilis (ATCC 6633) (converted)

| MIC [3, 13] [µM] | MIC [3, 14] [µM] | MIC ([3]; read-out: MIC against S. aureus) [µM] | MIC [4, 15] [µM] | MIC [4, 16] [µM] | MIC ([4]; read-out: MIC against B. subtilis) [µM] | MIC ([1]; ATCC15692, read-out: MIC against P. aeruginosa) [µM] | SMILES | MIC [1, 7] [µg/mL] | MIC [1, 8] [µM] | MIC [2, 9] [µg/mL] | MIC [2, 10] [µM] | MIC [3, 11] [µg/mL] | MIC [4, 12] [µg/mL] | MIC [5] [µM] | MIC [6] [µM] |
| --- | --- | --- | --- | --- | --- | --- | --- | --- | --- | --- | --- | --- | --- | --- | --- |
|  |  |  |  |  |  |  | O=C(CNC(=O)OCc1ccccc1)NC[C@H]1CN(c2ccc(N3CCOCC3)c(F)c2)C(=O)O1 [Compound 3a, Benzyl (S)-(2-(((3-(3-fluoro-4-morpholinophenyl)-2-oxooxazolidin-5-yl)methyl)amino)-2-oxoethyl)carbamate] | 64 ± 1.4 | 132 | 32 ± 1 | 65.8 | 16 ± 2.1 | 4 ± 0.3 | 32.9 (≈ 16 µg/mL) | 8.22 (≈ 4 µg/mL) |
|  |  |  |  |  |  |  | C[C@H](NC(=O)OCc1ccccc1)C(=O)NC[C@H]1CN(c2ccc(N3CCOCC3)c(F)c2)C(=O)O1 [Compound 3b, Benzyl ((S)-1-((((S)-3-(3-fluoro-4-morpholinophenyl)-2-oxooxazolidin-5-yl)methyl)amino)-1-oxopropan-2-yl)carbamate] | 64 ± 1.9 | 128 | 32 ± 2.5 | 63.9 | 32 ± 1.5 | 32 ± 2.1 | 63.9 (≈ 32 µg/mL) | 63.9 (≈ 32 µg/mL) |
|  |  |  |  |  |  |  | CC(C)[C@H](NC(=O)OCc1ccccc1)C(=O)NC[C@H]1CN(c2ccc(N3CCOCC3)c(F)c2)C(=O)O1 [Compound 3c, Benzyl ((S)-1-((((S)-3-(3-fluoro-4-morpholinophenyl)-2-oxooxazolidin-5-yl)methyl)amino)-3-methyl-1-oxobutan-2-yl)carbamate] | 64 ± 2.9 | 121 | 32 ± 1.6 | 60.5 | 32 ± 1.1 | 32 ± 2.7 | 60.5 (≈ 32 µg/mL) | 60.5 (≈ 32 µg/mL) |
|  |  |  |  |  |  |  | CSCC[C@H](NC(=O)OCc1ccccc1)C(=O)NC[C@H]1CN(c2ccc(N3CCOCC3)c(F)c2)C(=O)O1 [Compound 3d, Benzyl ((S)-1-((((S)-3-(3-fluoro-4-morpholinophenyl)-2-oxooxazolidin-5-yl)methyl)amino)-4-(methylthio)-1-oxobutan-2-yl)carbamate] | 64 ± 3.1 | 114 | 32 ± 2 | 57.1 | 32 ± 1.6 |  | 57.1 (≈ 32 µg/mL) | 57.1 (≈ 32 µg/mL) |
| 9.34 to 10 | 9.58 | 9.583 | 2.33 to 2.5 | 2.4 | 2.396 |  | O=C(NC[C@H]1CN(c2ccc(N3CCOCC3)c(F)c2)C(=O)O1)c1ccc(F)cc1 [Compound 5b, (S)-4-Fluoro-N-((3-(3-fluoro-4-morpholinophenyl)-2-oxooxazolidin-5-yl)methyl) benzamide] | 32 ± 1.2 | 76.7 | 32 ± 2.4 | 76.7 | 4 ± 0.1 | 1 ± 0.1 |  |  |
| 4.5 | 4.5 |  | 2.25 | 2.25 |  |  | O=C(NC[C@H]1CN(c2ccc(N3CCOCC3)c(F)c2)C(=O)O1)c1ccc([N+](=O)[O-])cc1 [Compound 5d, (S)-N-((3-(3-Fluoro-4-morpholinophenyl)-2-oxooxazolidin-5-yl)methyl)-4-nitro benzamide] | 32 ± 1.6 | 72 | 32 ± 2.2 | 72 | 2 ± 0.1 | 1 ± 0.1 |  |  |
| 5.93 | 5.93 |  |  | 0.741 |  | 94.9 | CC(=O)NC[C@H]1CN(c2ccc(N3CCOCC3)c(F)c2)C(=O)O1 [Linezolid] | 32 ± 0.7 | 94.9 | 8 ± 0.2 | 23.7 | 2 ± 0.1 | 0.25 ± 0.01 |  |  |

| SMILES | MIC [3, 13] [µM] | MIC [3, 14] [µM] | MIC ([3]; read-out: MIC against S. aureus) [µM] | MIC [4, 15] [µM] | MIC [4, 16] [µM] | MIC ([4]; read-out: MIC against B. subtilis) [µM] | MIC ([1]; ATCC15692, read-out: MIC against P. aeruginosa) [µM] | MIC [1, 7] [µg/mL] | MIC [1, 8] [µM] | MIC [2, 9] [µg/mL] | MIC [2, 10] [µM] | MIC [3, 11] [µg/mL] | MIC [4, 12] [µg/mL] | MIC [5] [µM] | MIC [6] [µM] |
| --- | --- | --- | --- | --- | --- | --- | --- | --- | --- | --- | --- | --- | --- | --- | --- |
| O=C(NC[C@H]1CN(c2ccc(N3CCOCC3)c(F)c2)C(=O)O1)c1ccc(Cl)cc1 [Compound 5c, (S)-4-Chloro-N-((3-(3-fluoro-4-morpholinophenyl)-2-oxooxazolidin-5-yl)methyl) benzamide] |  |  |  | 4.61 to 5 | 4.61 |  |  | 32 ± 1.9 | 73.8 | 32 ± 0.7 | 73.8 | 8 ± 0.3 | 2 ± 0.1 | 18.4 (≈ 8 µg/mL) |  |
